{
  "source": "patent US20090246248A1",
  "about": "“COATING COMPOSITIONS HAVING IMPROVED PERFORMANCE” (priority 2008, published 2009)",
  "key": {"[1]": {"assay": "Critical micelle concentration (methyl orange assay)", "assay_type": "physicochemical", "details": "pH 7 PBS, A484", "procedure": "Formation of a composition of the invention, and evidence of macromolecular network formation, may be monitored or quantified by any means known in the art. In this example, macromolecular formation was detected using a standard assay for determining critical micelle concentration (“CMC”). In this assay, a solution containing the composition of the invention (in a range of concentrations in pH 7 phosphate buffered saline (“PBS”)) was mixed with a solution of methyl orange (0.04 mM in PBS), and the absorbance of the mixture was measured at 484 nm (A484). CMC is the concentration at which a sharp decrease in absorbance at A484 is observed, a change in the optical properties of methyl orange when trapped in a hydrophobic phase, such as caused by self-association as a macromolecular network (Table 7, “CMC”). Also included in this assay were an assay control peptide having an amino acid sequence of SEQ ID NO:122 (Table 7, “Control”), and compound 119 (a PEGylated peptide, the peptide having an amino acid sequence of SEQ ID NO:122, as described in more detail in Example 6 herein)."}, "[2]": {"assay_type": "binding", "details": "18 hour incubation in 10% BSA+10 mM guanidinium chloride; FIG. 1", "text": "In this example, illustrated are unexpected beneficial properties of the composition of the invention, including but not limited to, one or more improved biophysical properties. Such one or more unexpected beneficial properties of a composition of the invention may comprise an increase in stability. An increase in stability may comprise any one or more of resistance to chemical denaturation, resistance to proteolytic degradation, improved retention to a substrate (e.g., resistance to being competed off a substrate to which it is bound, such as by proteins or other biomolecules found in body tissues). Thus, to ascertain a beneficial property of a composition of the invention, it is compared to the properties of a component of the composition-namely, a substrate-binding peptide by itself (e.g., without fatty acid covalently coupled thereto). An assay was developed that, from our direct comparisons (see, e.g., discussion of FIG. 2 below, and Example 7 herein), mimicked the effect of incubation of substrate-binding peptide with human plasma on stability of binding of a substrate-binding peptide to its substrate. The assay utilized incubations in the presence of 10% bovine serum album (BSA) with 10 mM guanidinium chloride. The high BSA concentration mimics the elevated albumin content of human plasma, and the guanidinium chloride is used to compete with any charged interactions involved in binding of the substrate-binding peptide to its substrate.\nIn this assay, two immunoassay plates were prepared for a “side-by-side” comparison of binding of a test sample (substrate-binding peptide or composition of the invention) to its substrate with or without the presence of 10% BSA with 10 mM guanidinium chloride. The wells of each 96-well polypropylene plate were incubated with 350 μl BSA 1% in PBS for 30 minutes at 20° C. with 500 rpm shaking. To each well was added one acetone-cleaned 3/32″ 316LVM stainless steel bead, followed by addition of dilutions in PBS of the test sample in a range of concentrations starting from 10 μM. Final volume in each well was 200 μl. The plates were incubated for 1 hour at 20° C. with 500 rpm shaking to allow for the binding to occur. The beads were washed 3 times with 250 μl PBS using a plate washer. […]\nIn the immunoassay for detecting binding without the presence of 10% BSA with 10 mM guanidinium chloride, added to each well was 200 μl of streptavidin AP (AP is alkaline phosphatase) at 1/200 in TBS+1% BSA. […] When color has developed, each well was read at OD405 nm in endpoint mode using a plate reader. […] When color has developed, the wells were read at OD405 nm in endpoint mode using a plate reader. […]"}, "[3]": {"assay": "Stent flow model, retention of radiolabelled composition on coated stent", "assay_type": "binding", "details": "5 ml/min, 37° C.", "protocol": "In this example, an in vitro model for in vivo stability on a medical device comprising a stent was performed. The stent flow model included a “circulatory system” comprising a peristaltic pump and clear silicone tubing into which is placed a stent (8 mm, stainless steel) coated with a composition according to the invention. Coating of the stents was accomplished by incubating the stents with radiolabelled composition 132 (specific activity 2,400 cpm/pmole at 20 μM in PBS) for 1 hour at 20° C., followed by extensive washing with buffer. […] In another variation of the stent flow model, 10% BSA+10 mM guanidinium chloride was circulated through the circulatory system at a flow rate of 5 ml/min for 18 hours at 37° C. After circulation in the respective variations of the stent flow model, the coated stents were then counted for radioactivity. To serve as an assay “control”, some coated stents were not placed in the stent flow model, but rather counted for radioactive counts to provide a reference from which percent retention could be calculated for those coated stents included in the stent flow model."}, "[4]": {"assay": "Binding assay for glycopeptide antibiotic (biotinylated vancomycin, immobilized peptide)", "details": "peptide immobilized on streptavidin plate", "procedure": "A typical binding assay for glycopeptide antibiotic was performed according to the following procedure. Briefly, synthetic peptides comprising an amino acid sequence to be characterized for binding were biotinylated to facilitate immobilization on streptavidin-coated 96-well plates. The microtiter plates were coated with streptavidin by adding 50 μl of a 10 μg/ml streptavidin solution in 0.1 M NaHCO3, and incubating the plates for at least 3 hours. The plate wells were blocked by adding 150 μl of a 1% BSA solution in 0.1 NaHCO3 with incubation for at least 2 hours, and the plates were stored at 4° C. until needed. Before use, the streptavidin plates were washed extensively in buffer-T. Added per well was peptide (100 μl 0.1 μM peptide in buffer-T), and then incubated for 30 minutes at room temperature with shaking. 200 μl of 0.5 mM biotin in buffer-T was added to block the remaining streptavidin sites, and plates were incubated for 15 minutes at room temperature. Plates were then washed with buffer-T to remove the excess biotin and peptide. Serial dilutions of biotinylated glycopeptide antibiotic in buffer-T were added (100 μl) to each well, representing a range of concentrations between 100 μM and […]. Plates were incubated for 30 minutes at room temperature with shaking prior to washing several times with buffer-T. Glycopeptide antibiotic was then detected by adding 100 μl of a diluted streptavidin-alkaline phosphatase conjugate to each well and incubated at room temperature for 30 minutes. Excess conjugate was removed by repeated washes with buffer-T, and the amount of alkaline phosphatase remaining in the well was detected using a pNPP (para-nitrophenylphosphate) colorimetric enzymatic assay. The relative amount of glycopeptide antibiotic captured by the peptides was determined by measuring the absorbance at 405 nm of the colored product of the alkaline phosphatase reaction. The EC50 was determined for each peptide relative to the binding affinity for the glycopeptide antibiotic used in the assay, as shown in Table 8 (with vancomycin as a representative glycopeptide antibiotic)."}, "[5]": {"test_system": "Staphylococcus aureus strain MZ100", "assay": "Tibia pin assay (coated titanium pins with vancomycin, bacterial culture)", "assay_type": "cell-based", "design": "key: —: no cfus; too many cfus to count, as they converge into one spot", "details": "3 hours 37° C.", "text": "In this assay, titanium pins were used as a model for tibia pins. Briefly, sterile pins were first coated with biofunctional composition (“SEQ ID NO:124-linker-SEQ ID NO:122”) comprising a substrate-binding peptide having binding specificity for vancomycin (“SEQ ID NO:124”) linked to a substrate-binding peptide having binding specificity for metal (“SEQ ID NO:122”), or a composition of the invention formed from compound comprising the biofunctional composition covalently coupled to fatty acid. The respective coatings also include vancomycin bound thereto. The coated pins were then placed in a silicone tube containing liquid bacterial growth medium and inoculated with bacteria. After incubation, the pins were removed, and then the liquid growth medium was serially diluted. The serial dilutions were inoculated onto bacterial culture plates, the plates were incubated, and counted on the plates were bacterial colonies.\nIn this assay, test samples (biofunctional composition (Table 6, “BC”) or compositions 133, 134, 135, 136 139) each were used to coat a pin by incubating the test sample (in a range of from about 0.8 mM to about 1 mM) with 2.5 μl of a 10 mM vancomycin solution and PBS to a final volume of 250 μl in a microtube (3 pins per tube) for 60 minutes at room temperature with occasional agitation. In a piece of silicone tubing (1.5 mm inner diameter, 50 mm long), added is tryptic soy broth+0.2% glucose, the coated pin, and 103 colony forming units (cfu) of Staphylococcus aureus strain MZ100 in either a 20 μl inoculum, 40 μl inoculum, or 60 μl inoculum. The tubing is clamped closed, and the tubing is incubated for 37° C. for 3 hours. After 3 hours, serial dilutions (1:10, 1:100, 1:1000) were made of the culture media from each tubing, and 10 μl of the undiluted culture medium and of each dilution were spotted onto the bacterial culture plate. The bacterial culture plate was incubated overnight at 37° C., and then the cfus were counted. The results, a composite of different assay runs, are shown in Table 6 (“−” means no cfus; “many” means too many cfus to count, as they converge into one spot; “NT” means not tested)."}},
  "note": "Square brackets hold non-standard residues; d marks the D form. Ends that are not written are not given here. Aun = NCCCCCCCCCCC(=O)O",
  "data": [
    {"substance": "AUD-AUD-K-AUD-AUD-AUD-AUD-SEQ ID NO: 122 ([Aun][Aun]K[Aun][Aun][Aun][Aun]SSHRTNHKKNNPKKKNKTRGSSGK) [Compound 123]", "values": [
      {"measurement": "CMC", "setting": "[1]", "value": 0.04, "unit": "µM"},
      {"measurement": "retention of binding compared to substrate-binding peptide alone (SEQ ID NO:122)", "setting": "[2]", "value": "significantly improved retention"}
    ]},
    {"substance": "Ac-Y-AUD-AUD-AUD-AUD-AUD-AUD-SEQ ID NO: 122 (Ac-Y[Aun][Aun][Aun][Aun][Aun][Aun]SSHRTNHKKNNPKKKNKTRGSSGK) [Compound 132]", "values": [
      {"measurement": "CMC", "setting": "[1]", "value": 0.123, "unit": "µM"},
      {"measurement": "composition remained bound to the coated stents", "setting": "[3]; 10% BSA+10 mM guanidinium chloride, 18 hours", "value": "over 90%"},
      {"measurement": "composition remained bound to the coated stents", "setting": "[3]; human plasma, 7 days", "value": "over 90%"},
      {"measurement": "EC50", "setting": "[4]", "value": 0.06, "unit": "µM"}
    ]},
    {"substance": "SSHRTNHKKNNPKKKNKTRGSSGK [Compound 130, AUD-AUD-AUD-AUD-AUD-AUD-SEQ ID NO: 122]", "values": [
      {"measurement": "CMC", "setting": "[1]", "value": 0.041, "unit": "µM"},
      {"measurement": "EC50", "setting": "[4]", "value": 10, "unit": "µM"}
    ]},
    {"substance": "SSHRTNHKKNNPKKKNKTRGSSGK [Compound 131, AUD-AUD-AUD-AUD-AUD-AUD-AUD-AUD-SEQ ID NO: 122]", "values": [
      {"measurement": "CMC", "setting": "[1]", "value": 0.37, "unit": "µM"},
      {"measurement": "EC50", "setting": "[4]", "value": 0.1, "unit": "µM"}
    ]},
    {"substance": "SSSCLIDMYGVCHNFDGAYDSSRG [Compound 134, AUD-AUD-AUD-AUD-SEQ ID NO: 124-linker-SEQ ID NO: 122]", "values": [
      {"measurement": "cfu 1:10", "setting": "[5]; Volume 20 μl inoculum", "value": "—"},
      {"measurement": "cfu 1:100", "setting": "[5]; Volume 20 μl inoculum", "value": "—"},
      {"measurement": "cfu 1:1000", "setting": "[5]; Volume 20 μl inoculum", "value": "—"},
      {"measurement": "cfu undiluted", "setting": "[5]; Volume 20 μl inoculum", "value": "—"},
      {"measurement": "cfu 1:10", "setting": "[5]; Volume 40 μl inoculum", "value": 6, "unit": "cfu"},
      {"measurement": "cfu 1:100", "setting": "[5]; Volume 40 μl inoculum", "value": 1, "unit": "cfu"},
      {"measurement": "cfu 1:1000", "setting": "[5]; Volume 40 μl inoculum", "value": "—"},
      {"measurement": "cfu undiluted", "setting": "[5]; Volume 40 μl inoculum", "value": "many"},
      {"measurement": "cfu 1:10", "setting": "[5]; Volume 60 μl inoculum", "value": 17, "unit": "cfu"},
      {"measurement": "cfu 1:100", "setting": "[5]; Volume 60 μl inoculum", "value": 5, "unit": "cfu"},
      {"measurement": "cfu 1:1000", "setting": "[5]; Volume 60 μl inoculum", "value": "—"},
      {"measurement": "cfu undiluted", "setting": "[5]; Volume 60 μl inoculum", "value": "many"},
      {"measurement": "EC50", "setting": "[4]", "value": 10, "unit": "µM"}
    ]}
  ]
}
